Experimental data as given in the supplement of paper PMC10307832.

Assays:
Experiment in all cases: relative viability (nuclei count vs DMSO), 5 days (fraction); higher = more cells survive
[1] = compound: N#CC[C@H](C1CCCC1)n1cc(-c2ncnc3[nH]ccc23)cn1 [Ruxolitinib] + O=C(c1cc(Cc2n[nH]c(=O)c3ccccc23)ccc1F)N1CCN(C(=O)C2CC2)CC1 [Olaparib] (partner 8 µM)
In short: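 Cells from lung cancer lines were seeded into 1536-well plates and, one day later, dosed by pin tool. Treatments were either a single drug or a fixed dose of an anchor drug with five library-drug doses (not always all listed) in √10 steps. After 5 days, nuclei were stained in a one-step fixation (final 0.05% Triton X-100, 1% formaldehyde, 1 ug/ml Hoechst) and counted on 4× images, and relative viability is the treated-to-vehicle nuclei ratio, as the median of duplicate plates.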

[2] = compound: N#CC[C@H](C1CCCC1)n1cc(-c2ncnc3[nH]ccc23)cn1 [Ruxolitinib]
In short: (§1)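 A plate was accepted only when its control CV was below 25% and the cells had doubled at least once. Viability is defined from nuclear counts as treated wells divided by vehicle wells, with the median taken across plates. That median covers lung cancer cell lines grown in 1536-well plates, dosed by pinning at five √10-spaced library-drug concentrations, and counted in MetaXpress from 4× Hoechst images after 5 days.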

[3] = compound: CS(=O)(=O)c1ccc(-c2cnc(N)c(C(=O)Nc3ccccc3)n2)cc1 [VE-821]
In short: as §1

[4] = compound: CS(=O)(=O)c1ccc(C(=O)Nc2ccc(Cl)c(-c3ccccn3)c2)c(Cl)c1 [Vismodegib]
In short: as §1

UMC-11
relative viability ([1]; first compound 0.08 µM): 0.37 | relative viability ([1]; first compound 0.253 µM): 0.894 | relative viability ([1]; first compound 0.8 µM): 1.03 | relative viability ([1]; first compound 2.53 µM): 0.366 | relative viability ([1]; first compound 8 µM): 0.315 | relative viability ([2]; 0.08 µM): 0.954 | relative viability ([2]; 0.253 µM): 0.999 | relative viability ([2]; 0.8 µM): 1.1 | relative viability ([2]; 2.53 µM): 1.13 | relative viability ([2]; 8 µM): 1.04 | relative viability ([3]; 0.08 µM): 1.08 | relative viability ([3]; 0.253 µM): 0.915 | relative viability ([3]; 0.8 µM): 0.948 | relative viability ([3]; 2.53 µM): 1.04 | relative viability ([3]; 8 µM): 0.531 | relative viability ([4]; 0.08 µM): 0.897 | relative viability ([4]; 0.253 µM): 0.919 | relative viability ([4]; 0.8 µM): 1 | relative viability ([4]; 2.53 µM): 0.947 | relative viability ([4]; 8 µM): 0.834
